# Earlier results, collected in patent publication US10634592B2, “Process for microextraction and detection of an analyte” (KING FAHD UNIVERSITY OF PETROLEUM AND MINERALS, priority 2015, dated 2020).
# Test system: not given
# Conditions: octanol-water partition coefficient
row,Structure (SMILES),log Kow
1,"BrC(Br)Br [TBM, tribromomethane]",2.38
2,"ClC(Cl)Br [BDCM, bromodichloromethane]",1.88
3,"CC(=O)C(Cl)Cl [DCP, 1,1-dichloro-2-propanone]",0.20
4,"ClC(Cl)Cl [TCM, trichloromethane]",1.97
5,"CC(=O)C(Cl)(Cl)Cl [TCP, 1,1,1-trichloro-2-propanone]",1.12
6,"ClC(Br)Br [DBCM, dibromochloromethane]",2.08

# Test system: cellular glutathione levels
# Conditions: prior to cytotoxic effects
row,Structure (SMILES),Effect on cellular glutathione levels
1,"CC(=O)C(Cl)Cl [DCP, 1,1-dichloro-2-propanone]",reduce cellular glutathione levels
